Laboratory results from patent US20240270821A1, “GIP/GLP1/GCG TRI-RECEPTOR AGONISTS AND USES THEREOF” (priority 2023, published 2024).
Like-named read-outs stand apart in the source and are kept apart here. Starred links: 1 amine or outer side, 2 acyl side, 3 side chain; linkers in the order of their positions; H or OH if unused. Non-standard residues stand in square brackets, D forms with d. Groups on a side chain read outwards from the residue. *: point of attachment. C20 diacid = O=C(O)CCCCCCCCCCCCCCCCCCC(=O)*; C18 diacid = O=C(O)CCCCCCCCCCCCCCCCC(=O)*; γGlu = O=C(O)[C@H](CCC(=O)[*:2])N[*:1]; αMeL = CC(C)C[C@](C)(N)C(=O)O; AEEA = NCCOCCOCC(=O)O; Aib = CC(C)(N)C(=O)O

How the values were obtained:
Format in all cases: cell-based
[1] = biological target: human GLP1-R (Homo sapiens, UniProt P43220); test: GLP1-R internalization assay in HEK293 cells; details: for Internalization % TOP: normalized to maximum concentration of GLP-1 (100%)
[2] = biological target: human GcgR (Homo sapiens, UniProt P47871); test: Functional cAMP activity in the presence of 1% HSA
[3] = biological target: T1, hGLP-1R (Homo sapiens, UniProt P43220); test: Functional cAMP activation in the presence of 0.1% casein (no HSA);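 also: intracellular cAMP rise after 30 min at 37 °C read by HTRF, normalized between buffer only (0%) and maximal control ligand (100%), four-parameter variable-slope fit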
[4] = biological target: T2, hGIPR (Homo sapiens, UniProt P48546); test: Functional cAMP activity in the presence of 1% HSA
T2 sequence (P48546 22-466): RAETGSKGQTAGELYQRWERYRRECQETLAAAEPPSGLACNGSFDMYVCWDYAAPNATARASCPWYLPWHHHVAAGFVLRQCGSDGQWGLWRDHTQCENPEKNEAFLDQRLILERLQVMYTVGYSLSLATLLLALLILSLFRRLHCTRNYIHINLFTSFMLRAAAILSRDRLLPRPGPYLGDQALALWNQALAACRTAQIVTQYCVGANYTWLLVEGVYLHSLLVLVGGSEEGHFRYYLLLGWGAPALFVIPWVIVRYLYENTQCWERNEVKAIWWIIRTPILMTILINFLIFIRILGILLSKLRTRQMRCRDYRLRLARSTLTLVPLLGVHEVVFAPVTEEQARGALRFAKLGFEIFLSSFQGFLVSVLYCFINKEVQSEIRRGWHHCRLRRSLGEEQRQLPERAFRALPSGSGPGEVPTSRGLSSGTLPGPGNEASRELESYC

[5] = biological target: T2, hGIPR; test: Functional cAMP activation in the presence of 0.1% casein (no HSA);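 also: intracellular cAMP rise after 30 min at 37 °C read by HTRF against a standard curve, scaled between buffer alone (0%) and top control ligand concentration (100%), four-parameter fit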
[6] = biological target: T1, hGLP-1R; test: Functional cAMP activity in the presence of 1% HSA
[7] = biological target: hGcgR (Homo sapiens, UniProt P47871); test: Functional cAMP activation in the presence of 0.1% casein (no HSA);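 also: intracellular cAMP rise after 30 min at 37 °C, read by HTRF against a cAMP standard curve, scaled from buffer only (0%) to maximal control ligand response (100%)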
[8] = HEK293 cells expressing SNAP-GLP-1R, read-out: GLP1R Internalization EC50
[9] = in the presence of 0.1% casein (no HSA), geometric mean, read-out: Relative cAMP EC50, hGLP-1R
[10] = in the presence of 0.1% casein (no HSA), geometric mean, read-out: Relative cAMP EC50, hGIPR
[11] = read-out: cAMP Rel EC50, hGLP-1R
[12] = in the presence of 0.1% casein (no HSA), geometric mean, read-out: Relative cAMP EC50, hGcgR

T1 sequence (P43220 24-463): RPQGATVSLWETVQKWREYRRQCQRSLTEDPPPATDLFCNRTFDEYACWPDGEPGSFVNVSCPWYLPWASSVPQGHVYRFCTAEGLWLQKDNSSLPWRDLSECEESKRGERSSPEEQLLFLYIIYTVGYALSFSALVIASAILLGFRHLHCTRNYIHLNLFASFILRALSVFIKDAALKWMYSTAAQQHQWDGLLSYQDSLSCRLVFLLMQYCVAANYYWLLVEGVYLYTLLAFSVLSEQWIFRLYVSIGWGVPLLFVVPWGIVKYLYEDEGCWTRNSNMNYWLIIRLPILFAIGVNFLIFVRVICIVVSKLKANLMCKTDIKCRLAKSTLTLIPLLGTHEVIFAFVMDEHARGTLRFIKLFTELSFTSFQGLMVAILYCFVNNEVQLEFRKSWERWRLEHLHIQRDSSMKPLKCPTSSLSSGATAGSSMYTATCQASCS
Chain of human GLP1-R (P43220 24-463): as above
Chain of human GcgR (P47871 26-477): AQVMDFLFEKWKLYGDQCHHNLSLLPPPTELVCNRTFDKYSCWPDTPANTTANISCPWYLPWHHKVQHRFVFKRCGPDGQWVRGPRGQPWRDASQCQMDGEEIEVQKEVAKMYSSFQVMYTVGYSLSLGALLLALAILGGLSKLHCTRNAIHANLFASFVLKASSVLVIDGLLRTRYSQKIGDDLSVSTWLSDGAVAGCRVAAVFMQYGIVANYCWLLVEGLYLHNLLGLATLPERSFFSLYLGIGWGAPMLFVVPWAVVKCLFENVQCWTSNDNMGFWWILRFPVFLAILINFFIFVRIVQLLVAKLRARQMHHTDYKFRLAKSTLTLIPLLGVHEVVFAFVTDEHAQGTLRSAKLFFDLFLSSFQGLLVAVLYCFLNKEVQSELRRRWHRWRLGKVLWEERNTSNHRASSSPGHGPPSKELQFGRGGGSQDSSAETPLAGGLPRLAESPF
Chain of hGcgR (P47871 26-477): as above

| Compound | EC50 [1] | Internalization % TOP [1] | EC50 [2] | EC50 [3] | EC50 [4] | EC50 [5] | EC50 [6] | EC50 [7] | EC50 [1, 8] | EC50 ([2]; read-out: cAMP Rel EC50, hGcgR) | EC50 [3, 9] | EC50 ([4]; read-out: cAMP Rel EC50, hGIPR) | EC50 [5, 10] | EC50 [6, 11] | EC50 [7, 12] |
| --- | --- | --- | --- | --- | --- | --- | --- | --- | --- | --- | --- | --- | --- | --- | --- |
| CC[C@H](C)[C@H](NC(=O)[C@H](Cc1ccccc1)NC(=O)[C@H](C)NC(=O)C(C)(C)NC(=O)[C@H](CCC(N)=O)NC(=O)[C@H](C)NC(=O)[C@H](CCCCNC(=O)COCCOCCNC(=O)COCCOCCNC(=O)CC[C@H](NC(=O)CCCCCCCCCCCCCCCCCCC(=O)O)C(=O)O)NC(=O)[C@H](CCCCN)NC(=O)[C@H](CC(=O)O)NC(=O)[C@H](CC(C)C)NC(=O)[C@](C)(CC(C)C)NC(=O)[C@H](CCCCN)NC(=O)[C@H](CO)NC(=O)[C@H](Cc1ccccc1)NC(=O)[C@H](CC(=O)O)NC(=O)[C@H](CO)NC(=O)[C@@H](NC(=O)[C@H](Cc1ccccc1)NC(=O)[C@@H](NC(=O)CNC(=O)[C@H](CCC(N)=O)NC(=O)C(C)(C)NC(=O)[C@@H](N)Cc1ccc(O)cc1)[C@@H](C)O)[C@@H](C)O)C(=O)N[C@@H](CCC(=O)O)C(=O)N[C@@H](Cc1ccc(O)cc1)C(=O)N[C@@H](CC(C)C)C(=O)N[C@@H](CC(C)C)C(=O)N[C@@H](CCC(=O)O)C(=O)NC(C)(C)C(=O)NCC(=O)N1CCC[C@H]1C(=O)N[C@@H](CO)C(=O)N[C@@H](CO)C(=O)NCC(=O)N[C@@H](C)C(=O)N1CCC[C@H]1C(=O)N1CCC[C@H]1C(=O)N1CCC[C@H]1C(=O)NCC(=O)N[C@@H](CCC(=O)O)C(=O)NCC(N)=O [Example 55] | 79.5 nM | 70.7% | 960 nM | 1.96 nM | 27.8 nM | 0.0856 nM | 479 nM | 5.2 nM | – | – | – | – | – | – | – |
| CC[C@H](C)[C@H](NC(=O)[C@H](Cc1ccccc1)NC(=O)[C@H](C)NC(=O)C(C)(C)NC(=O)[C@H](CCC(N)=O)NC(=O)[C@H](C)NC(=O)[C@H](CCCCNC(=O)COCCOCCNC(=O)CC[C@H](NC(=O)CCCCCCCCCCCCCCCCC(=O)O)C(=O)O)NC(=O)[C@H](CCCCN)NC(=O)[C@H](CC(=O)O)NC(=O)[C@H](CC(C)C)NC(=O)[C@](C)(CC(C)C)NC(=O)[C@H](CCCN)NC(=O)[C@H](CO)NC(=O)[C@H](Cc1ccccc1)NC(=O)[C@H](CC(=O)O)NC(=O)[C@H](CO)NC(=O)[C@@H](NC(=O)[C@H](Cc1ccccc1)NC(=O)[C@@H](NC(=O)CNC(=O)[C@H](CCC(N)=O)NC(=O)C(C)(C)NC(=O)[C@@H](N)Cc1ccc(O)cc1)[C@@H](C)O)[C@@H](C)O)C(=O)N[C@@H](CCC(=O)O)C(=O)N[C@@H](Cc1ccc(O)cc1)C(=O)N[C@@H](CC(C)C)C(=O)N[C@@H](CC(C)C)C(=O)N[C@@H](CCC(=O)O)C(=O)N[C@H](C)C(=O)NCC(=O)N1CCC[C@H]1C(=O)N[C@@H](CO)C(=O)N[C@@H](CO)C(=O)NCC(=O)N[C@@H](C)C(=O)N1CCC[C@H]1C(=O)N1CCC[C@H]1C(=O)N1CCC[C@H]1C(=O)N[C@@H](CO)C(=O)NCC(=O)N[C@@H](CCC(=O)O)C(N)=O [Example 129] | – | 40.6% | – | – | – | – | – | – | 22.5 nM | 510 nM | 1.87 nM | 24.3 nM | 0.134 nM | 284 nM | 2.01 nM |
| CC[C@H](C)[C@H](NC(=O)[C@H](Cc1ccccc1)NC(=O)[C@H](C)NC(=O)C(C)(C)NC(=O)[C@H](CCC(N)=O)NC(=O)[C@H](C)NC(=O)[C@H](CCCCNC(=O)COCCOCCNC(=O)COCCOCCNC(=O)CC[C@H](NC(=O)CCCCCCCCCCCCCCCCC(=O)O)C(=O)O)NC(=O)[C@H](CCCCN)NC(=O)[C@H](CC(=O)O)NC(=O)[C@H](CC(C)C)NC(=O)[C@](C)(CC(C)C)NC(=O)[C@H](CCCN)NC(=O)[C@H](CO)NC(=O)[C@H](Cc1ccccc1)NC(=O)[C@H](CC(=O)O)NC(=O)[C@H](CO)NC(=O)[C@@H](NC(=O)[C@H](Cc1ccccc1)NC(=O)[C@@H](NC(=O)CNC(=O)[C@H](CCC(N)=O)NC(=O)C(C)(C)NC(=O)[C@@H](N)Cc1ccc(O)cc1)[C@@H](C)O)[C@@H](C)O)C(=O)N[C@@H](CCC(=O)O)C(=O)N[C@@H](Cc1ccc(O)cc1)C(=O)N[C@@H](CC(C)C)C(=O)N[C@@H](CC(C)C)C(=O)N[C@@H](CCC(=O)O)C(=O)NC(C)(C)C(=O)NCC(=O)N[C@@H](CCC(=O)O)C(=O)N[C@@H](CO)C(=O)N[C@@H](CO)C(=O)NCC(=O)N[C@@H](C)C(=O)N1CCC[C@H]1C(=O)N1CCC[C@H]1C(=O)N1CCC[C@H]1C(=O)N[C@@H](CO)C(=O)NCC(=O)N[C@@H](CCC(=O)O)C(N)=O [Example 185] | – | 43.7% | – | – | – | – | – | – | 144 nM | 504 nM | 5.46 nM | 21.1 nM | 0.123 nM | 502 nM | 3.5 nM |
| CC[C@H](C)[C@H](NC(=O)[C@H](Cc1ccccc1)NC(=O)[C@H](C)NC(=O)C(C)(C)NC(=O)[C@H](CCC(N)=O)NC(=O)[C@H](C)NC(=O)[C@H](CCCCNC(=O)CC[C@H](NC(=O)CC[C@H](NC(=O)CC[C@H](NC(=O)CCCCCCCCCCCCCCCCC(=O)O)C(=O)O)C(=O)O)C(=O)O)NC(=O)[C@H](CCCCN)NC(=O)[C@H](CC(=O)O)NC(=O)[C@H](CC(C)C)NC(=O)[C@](C)(CC(C)C)NC(=O)[C@H](CCCN)NC(=O)[C@H](CO)NC(=O)[C@H](Cc1ccccc1)NC(=O)[C@H](CC(=O)O)NC(=O)[C@H](CO)NC(=O)[C@@H](NC(=O)[C@H](Cc1ccccc1)NC(=O)[C@@H](NC(=O)CNC(=O)[C@H](CCC(N)=O)NC(=O)C(C)(C)NC(=O)[C@@H](N)Cc1ccc(O)cc1)[C@@H](C)O)[C@@H](C)O)C(=O)N[C@@H](CCC(=O)O)C(=O)N[C@@H](Cc1ccc(O)cc1)C(=O)N[C@@H](CC(C)C)C(=O)N[C@@H](CC(C)C)C(=O)N[C@@H](CCC(=O)O)C(=O)N[C@H](C)C(=O)NCC(=O)N1CCC[C@H]1C(=O)N[C@@H](CO)C(=O)N[C@@H](CO)C(=O)NCC(=O)N[C@@H](C)C(=O)N1CCC[C@H]1C(=O)N1CCC[C@H]1C(=O)N1CCC[C@H]1C(=O)N[C@@H](CO)C(=O)NCC(=O)N[C@H](C(N)=O)[C@@H](C)O [Example 205] | – | 67.7% | – | – | – | – | – | – | 49.4 nM | 397 nM | 2.71 nM | 24.4 nM | 0.16 nM | 234 nM | 8.98 nM |
| CC[C@H](C)[C@H](NC(=O)[C@H](Cc1ccccc1)NC(=O)[C@H](C)NC(=O)[C@](C)(Cc1ccncc1)NC(=O)[C@H](CCC(N)=O)NC(=O)[C@H](C)NC(=O)[C@H](CCCCNC(=O)COCCOCCNC(=O)CC[C@H](NC(=O)CCCCCCCCCCCCCCCCC(=O)O)C(=O)O)NC(=O)[C@H](CCCCN)NC(=O)[C@H](CC(=O)O)NC(=O)[C@H](CC(C)C)NC(=O)[C@](C)(CC(C)C)NC(=O)[C@H](CCCNC(=N)N)NC(=O)[C@H](CO)NC(=O)[C@H](Cc1ccccc1)NC(=O)[C@H](CC(=O)O)NC(=O)[C@H](CO)NC(=O)[C@@H](NC(=O)[C@H](Cc1ccccc1)NC(=O)[C@@H](NC(=O)CNC(=O)[C@H](CCC(N)=O)NC(=O)C(C)(C)NC(=O)[C@@H](N)Cc1ccc(O)cc1)[C@@H](C)O)[C@@H](C)O)C(=O)N[C@@H](CCC(=O)O)C(=O)N[C@@H](Cc1ccc(O)cc1)C(=O)N[C@@H](CC(C)C)C(=O)N[C@H](C(=O)N[C@@H](CCC(=O)O)C(=O)NC(C)(C)C(=O)NCC(=O)N[C@@H](CCC(=O)O)C(=O)N[C@@H](CO)C(=O)N[C@@H](CO)C(=O)NCC(=O)N[C@@H](C)C(=O)N1CCC[C@H]1C(=O)N1CCC[C@H]1C(=O)N1CCC[C@H]1C(=O)N[C@@H](CO)C(=O)NCC(=O)N[C@@H](CO)C(N)=O)[C@@H](C)CC [Example 230] | 34.4 nM | 31.2% | 388 nM | 0.937 nM | 21.6 nM | 0.0909 nM | 199 nM | 1.61 nM | – | – | – | – | – | – | – |
| H-Y[Aib]QGTFTSDFSK[αMeL]LDKK([AEEA-AEEA-γGlu-C20 diacid])AQ[Aib]AFIEYLLEGGPSSGAPPPGEG-NH2 [Example 17] | – | 72.2% | – | – | – | – | – | – | 66.2 nM | 2040 nM | 2.96 nM | 91.7 nM | 0.317 nM | 543 nM | 8.33 nM |
| H-Y[Aib]QGTFTSDFSK[αMeL]LDKK([AEEA-γGlu-C18 diacid])AQ[Aib]AFIEYLIEGGPSSGAPPPSEG-NH2 [Example 49] | – | 53.2% | – | – | – | – | – | – | 37.2 nM | 1310 nM | 0.706 nM | 44.9 nM | 0.324 nM | 151 nM | 5.54 nM |
| H-Y[Aib]QGTFTSDFSK[αMeL]LDKK([AEEA-γGlu-C18 diacid])AQ[Aib]AFIEYLIE[Aib]GESSGAPPPSGE-NH2 [Example 217] | – | 58.2% | – | – | – | – | – | – | 27.6 nM | 1570 nM | 0.667 nM | 15 nM | 0.0897 nM | 130 nM | 5.11 nM |
| H-Y[Aib]QGTFTSDFSK[αMeL]LDKK([AEEA-γGlu-C18 diacid])AQ[Aib]AFIEYLLEGGPSSGAPPPSGS-NH2 [Example 141] | – | 64.1% | – | – | – | – | – | – | 95.3 nM | 877 nM | 1.96 nM | 62.1 nM | 0.21 nM | 562 nM | 1.77 nM |
